The structures appear in SMILES notation. Converted amounts (≈) assume the structure as drawn.

Holding throughout (assay type): functional
Assay [1] has as its system Bacillus subtilis. Description: Antibacterial activity against Bacillus subtilis NCIM 2439 assessed as zone of inhibition at 1 ug/ml after 24 hrs by agar diffusion method. As to conditions: NCIM 2439, 24 h, read-out: IZ.
The subject of assay [2] is Staphylococcus aureus. Description: Antibacterial activity against Staphylococcus aureus NCIM 2079 assessed as zone of inhibition at 1 ug/ml after 24 hrs by agar diffusion method. As to conditions: NCIM 2079, 24 h, read-out: IZ.
The subject of assay [3] is Escherichia coli. Description: Antibacterial activity against Escherichia coli NCIM 2064 assessed as zone of inhibition at 1 ug/ml after 24 hrs by agar diffusion method. As to conditions: NCIM 2064, 24 h, read-out: IZ.
For assay [4], the system named is Pseudomonas aeruginosa. Description: Antibacterial activity against Pseudomonas aeruginosa NCIB 8650 assessed as zone of inhibition at 1 ug/ml after 24 hrs by agar diffusion method. As to conditions: NCIB 8650, 24 h, read-out: IZ.
For assay [5], the system named is Staphylococcus aureus. The assay can be described thus: Antibacterial activity against Staphylococcus aureus assessed as zone of inhibition at 1 mg/ml after 32 hrs by agar-well diffusion method. The settings on record: read-out: IZ.
In assay [6] the test system is Klebsiella pneumoniae. The assay can be described thus: Antibacterial activity against Klebsiella pneumoniae assessed as zone of inhibition at 1 mg/ml after 32 hrs by agar-well diffusion method. The settings on record: read-out: IZ.
Assay [7] has as its system Pseudomonas aeruginosa. The assay can be described thus: Antibacterial activity against Pseudomonas aeruginosa assessed as zone of inhibition at 1 mg/ml after 32 hrs by agar-well diffusion method. The settings on record: read-out: IZ.
Assay [8] has as its system Escherichia coli. Description: Antibacterial activity against Escherichia coli assessed as zone of inhibition at 1 mg/ml after 32 hrs by agar-well diffusion method. As to conditions: read-out: IZ.
The test system of assay [9] is Bacillus subtilis. Description: Antibacterial activity against Bacillus subtilis MTCC 1134 after 24 hrs by broth dilution method. The settings on record: MTCC 1134, 24 h.
Assay [10] deals with Escherichia coli. The assay can be described thus: Antibacterial activity against Escherichia coli MTCC 1559 after 24 hrs by broth dilution method. As to conditions: MTCC 1559, 24 h.
Assay [11] relates to Pseudomonas aeruginosa. Description: Antibacterial activity against Pseudomonas aeruginosa MTCC 1034 after 24 hrs by broth dilution method. The settings on record: MTCC 1034, 24 h.

Turning to `COC(=O)c1cc(-c2oc3c(Cl)cc(Cl)cc3c2C)n(C(N)=O)n1`, the zone of inhibition at 1 µg/mL in assay [1], in [2], in assay [3] and in assay [4] was 9 to 30 mm throughout.

For `CCOC(=O)c1cc(-c2oc3ccc(Cl)cc3c2C)on1`, the zone of inhibition at 1 µg/mL in assay [1], in [2], in assay [3] and in assay [4] was 9 to 30 mm each time.

Take `COC(=O)c1cc(-c2cc3ccccc3o2)n(-c2ccccc2)n1`: the zone of inhibition at 1 µg/mL in assay [1], in assay [2], in assay [3] and in assay [4] was 9 to 30 mm each time.

Turning to `Brc1ccc2oc(-c3cn4c(-c5cc6ccccc6o5)csc4n3)cc2c1`, the zone of inhibition at 1000 µg/mL in assay [5], in [6], in assay [7] and in [8] was 6 to 23 mm throughout.

On to `Cc1c(-c2cc(C(=O)NN)nn2-c2ccccc2)oc2c(Cl)cc(Cl)cc12`, for which the zone of inhibition at 1 µg/mL in [1], in [2], in assay [3] and in [4] was 9 to 30 mm in each case.

For the molecule `CCOC(=O)c1cc(-c2cc3ccccc3o2)on1`, the zone of inhibition at 1 µg/mL in assay [1], in [2], in assay [3] and in assay [4] was 9 to 30 mm throughout.

Turning to `Cc1ccc(-c2cc(-c3cc4cc(Br)ccc4o3)nc(S)n2)s1`, the MIC in assay [9], in [10] and in [11] was 4.32 to 18.4 µg/mL (≈ 10.7 to 45.7 µM) in each case.

For `COC(=O)c1cc(-c2oc3c(Cl)cc(Cl)cc3c2C)[nH]n1`, the zone of inhibition at 1 µg/mL in assay [1], in [2], in [3] and in assay [4] was 19 to 30 mm throughout.

On to `COC(=O)c1cc(-c2cc3cc(Br)ccc3o2)n(-c2ccccc2)n1`, for which the zone of inhibition at 1 µg/mL in assay [1], in assay [2], in [3] and in assay [4] was 9 to 30 mm each time.

For the molecule `NNC(=O)c1cc(-c2cc3cc(Br)ccc3o2)n(-c2ccccc2)n1`, the zone of inhibition at 1 µg/mL in [1], in assay [2], in assay [3] and in assay [4] was 9 to 30 mm each time.

Regarding `Fc1ccc(-c2csc3nc(-c4cc5ccccc5o4)cn23)cc1`, the zone of inhibition at 1000 µg/mL in [5], in [6], in [7] and in assay [8] was 6 to 23 mm in each case.

As for `COC(=O)c1cc(-c2cc3ccccc3o2)[nH]n1`, the zone of inhibition at 1 µg/mL in assay [1], in [2], in assay [3] and in assay [4] was 9 to 30 mm each time.

As for `Cc1c(-c2cc(C(=O)NN)nn2-c2ccccc2)oc2ccc(Cl)cc12`, the zone of inhibition at 1 µg/mL in assay [1], in assay [2], in assay [3] and in [4] was 9 to 30 mm each time.

Take `COC(=O)c1cc(-c2oc3ccc(Cl)cc3c2C)n(-c2ccccc2)n1`: the zone of inhibition at 1 µg/mL in assay [1], in [2], in assay [3] and in assay [4] was 9 to 30 mm throughout.

As for `COC(=O)c1cc(-c2oc3ccc(Cl)cc3c2C)n(C(N)=O)n1`, the zone of inhibition at 1 µg/mL in assay [1], in assay [2], in [3] and in assay [4] was 9 to 30 mm each time.

As for `Cc1ccc(-c2csc3nc(-c4cc5cc(Br)ccc5o4)cn23)cc1`, the zone of inhibition at 1000 µg/mL in assay [5], in [6], in [7] and in assay [8] was 6 to 23 mm in each case.

On to `c1ccc2oc(-c3cn4c(-c5cc6ccccc6o5)csc4n3)cc2c1`, for which the zone of inhibition at 1000 µg/mL in assay [5], in assay [6], in assay [7] and in assay [8] was 6 to 23 mm each time.

`Nc1nc(-c2cc3cc(Br)ccc3o2)cc(-c2cccs2)n1`: the MIC in [9], in assay [10] and in [11] was 4.32 to 18.4 µg/mL (≈ 11.6 to 49.6 µM) each time.

For `Cc1ccc(-c2cc(-c3cc4cc(Br)ccc4o3)nc(N)n2)s1`, the MIC in [9], in [10] and in assay [11] was 4.32 to 18.4 µg/mL (≈ 11.2 to 47.8 µM) each time.

As to `Sc1nc(-c2cc3ccccc3o2)cc(-c2cccs2)n1`, the MIC in assay [9], in [10] and in assay [11] was 4.32 to 18.4 µg/mL (≈ 13.9 to 59.4 µM) each time.

In the case of `CCOC(=O)c1cc(-c2oc3c(Cl)cc(Cl)cc3c2C)on1`, the zone of inhibition at 1 µg/mL in assay [1], in assay [2], in [3] and in [4] was 9 to 30 mm in each case.

Regarding `COC(=O)c1cc(-c2cc3cc(Br)ccc3o2)[nH]n1`, the zone of inhibition at 1 µg/mL in assay [1], in [2], in assay [3] and in [4] was 9 to 30 mm each time.

Regarding `Brc1ccc2oc(-c3cn4c(-c5cc6cc(Br)ccc6o5)csc4n3)cc2c1`, the zone of inhibition at 1000 µg/mL in [5], in assay [6], in [7] and in assay [8] was 6 to 23 mm throughout.

Regarding `COC(=O)c1cc(-c2oc3c(Cl)cc(Cl)cc3c2C)n(-c2ccccc2)n1`, the zone of inhibition at 1 µg/mL in assay [1], in assay [2], in assay [3] and in assay [4] was 9 to 30 mm each time.

`Cc1ccc(-c2cc(-c3cc4ccccc4o3)nc(O)n2)s1`: the minimal inhibitory concentration (MIC) in assay [9], in [10] and in [11] was 4.32 to 18.4 µg/mL (≈ 14 to 59.8 µM) in each case.

Consider `Brc1ccc2oc(-c3cn4c(-c5ccccc5)csc4n3)cc2c1`, for which the zone of inhibition at 1000 µg/mL in assay [5], in assay [6], in [7] and in assay [8] was 15 to 20 mm throughout.

Regarding `Cc1ccc(-c2cc(-c3cc4cc(Br)ccc4o3)nc(O)n2)s1`, the MIC in assay [9], in assay [10] and in assay [11] was 4.32 to 18.4 µg/mL (≈ 11.2 to 47.6 µM) each time.

Take `COC(=O)c1cc(-c2cc3cc(Br)ccc3o2)n(C(N)=O)n1`: the zone of inhibition at 1 µg/mL in [1], in [2], in [3] and in assay [4] was 9 to 30 mm each time.

Turning to `Nc1nc(-c2cc3ccccc3o2)cc(-c2cccs2)n1`, the MIC in assay [9], in [10] and in [11] was 4.32 to 18.4 µg/mL (≈ 14.7 to 62.9 µM) in each case.

Take `c1ccc(-c2csc3nc(-c4cc5ccccc5o4)cn23)cc1`: the zone of inhibition at 1000 µg/mL in assay [5], in [6], in assay [7] and in assay [8] was 6 to 23 mm throughout.

For `NNC(=O)c1cc(-c2cc3ccccc3o2)n(-c2ccccc2)n1`, the zone of inhibition at 1 µg/mL in assay [1], in assay [2], in [3] and in assay [4] was 9 to 30 mm in each case.

In the case of `Oc1nc(-c2cc3cc(Br)ccc3o2)cc(-c2cccs2)n1`, the MIC in assay [9], in [10] and in assay [11] was 4.32 to 18.4 µg/mL (≈ 11.6 to 49.4 µM) throughout.

As for `Cc1ccc(-c2cc(-c3cc4ccccc4o3)nc(S)n2)s1`, the MIC in assay [9], in assay [10] and in [11] was 4.32 to 18.4 µg/mL (≈ 13.3 to 56.9 µM) each time.

Consider `Sc1nc(-c2cc3cc(Br)ccc3o2)cc(-c2cccs2)n1`, for which the MIC in [9], in assay [10] and in assay [11] was 4.32 to 18.4 µg/mL (≈ 11.1 to 47.4 µM) in each case.

Turning to `COC(=O)c1cc(-c2cc3ccccc3o2)n(C(N)=O)n1`, the zone of inhibition at 1 µg/mL in [1], in assay [2], in assay [3] and in assay [4] was 9 to 30 mm each time.

Take `CCOC(=O)c1cc(-c2cc3cc(Br)ccc3o2)on1`: the zone of inhibition at 1 µg/mL in [1], in [2], in [3] and in assay [4] was 9 to 30 mm each time.

Consider `Oc1nc(-c2cc3ccccc3o2)cc(-c2cccs2)n1`, for which the MIC in assay [9], in [10] and in [11] was 4.32 to 18.4 µg/mL (≈ 14.7 to 62.7 µM) throughout.

On to `Cc1ccc(-c2csc3nc(-c4cc5ccccc5o4)cn23)cc1`, for which the zone of inhibition at 1000 µg/mL in assay [5], in assay [6], in assay [7] and in assay [8] was 6 to 23 mm each time.

For the molecule `COC(=O)c1cc(-c2oc3ccc(Cl)cc3c2C)[nH]n1`, the zone of inhibition at 1 µg/mL in assay [1], in assay [2], in assay [3] and in assay [4] was 9 to 30 mm throughout.

The record behind these values is ChEMBL document CHEMBL4382229, “Benzofuran derivatives and their anti-tubercular, anti-bacterial activities” (Eur J Med Chem, 2019).
